According to article PMC3063246, “Corticotropin Releasing Factor-Induced CREB Activation in Striatal Neurons Occurs via a Novel Gβγ Signaling Pathway” (PLoS ONE, 2011):
Entries after “also recorded” stand apart in the source; their conditions may differ. Where two headings read alike, the source gives them in different places. No end group written: not given here.

Legend:
[1] = tested on: CRF-induced CREB phosphorylation in striatal neurons; assay: Block of CRF-induced CREB phosphorylation; assay type: cell-based, rat
Akt/PKB = details: cited from earlier work
Text: (§1) Supplement pone.0018114.s002.xlsx, sheet "Sheet1" | column: Target (notes)

[2] = tested on: mGluR1/5 mediated calcium transienst; details: 5 mM as printed; ref unpublished observations; cited from earlier work
Text: as §1

[3] = tested on: STR-induced CREB phosphorylation; assay: Block of stressin-1-induced CREB phosphorylation; assay type: cell-based, rat; details: CP154526 100 nM; stressin-1 70 nM, 15 min
CRFR1 = molecular target: CRFR1; design: method as in 5 sources, ref 26 = [26]; PMID 9918582; 26 Perrin MH Sutton SW Cervini LA Rivier JE Vale WW 1999 Comparison of an agonist, urocortin, and an antagonist, astressin, as radioligands for characterization of corticotropin-releasing factor recep ||| ref [73] (a number printed in a supplementary file, which may have a reference list of its own: not looked up in the article's list) ||| ref [74] (a number printed in a supplementary file, which may have a reference list of its own: not looked up in the article's list) ||| ref [75] (a number printed in a supplementary file, which may have a reference list of its own: not looked up in the article's list) ||| ref [76] (a number printed in a supplementary file, which may have a reference list of its own: not looked up in the article's list); details: cited from earlier work
CRFR2 = details: cited from earlier work
Text: as §1

[4] = tested on: depolarization-induced CREB phosphorylation; design: method as in 3 sources, ref 36 = [36]; PMID 11226322; doi:10.1073/pnas.051634198; 36 Wu GY Deisseroth K Tsien RW 2001 Activity-dependent CREB phosphorylation: convergence of a fast, sensitive calmodulin kinase pathway and a slow, less sensitive mitogen-activated protein kinase path ||| ref [36] (a number printed in a supplementary file, which may have a reference list of its own: not looked up in the article's list) ||| ref [71] (a number printed in a supplementary file, which may have a reference list of its own: not looked up in the article's list); details: 2 µM; cited from earlier work
[5] = tested on: ISO-induced cAMP accumulation; assay: Block of ISO-induced cAMP accumulation; assay type: cell-based, rat; details: SQ22536 90 µM; ISO 10 µM; IBMX 75 µM
PKA = details: cited from earlier work
Text: as §1

[6] = tested on: CREB phosphorylation in cultured striatal neurons; assay type: cell-based, rat
[7] = tested on: cAMP in cultured striatal neurons; assay: cAMP assay (Parameter cAMP kit) in cultured striatal neurons; assay type: cell-based, rat; details: IBMX 75 µM
[8] = tested on: CREB phosphorylation in cultured striatal neurons; details: ISO via a Gαs pathway in striatal neurons; cited from earlier work
Procedure: To test for a Gβγ-dependent mechanism in CRF-induced CREB phosphorylation, we utilized the Gβγ-specific inhibitor gallein (75 µM). […] To ensure that the effect of gallein was specific to CRF and not dampening all G-protein signaling, we stimulated our neurons with ISO (10 µM) in the presence of gallein. […] Indeed, this was in fact the ...

PI3K = details: 100 nM; cited from earlier work
Text: as §1

CRF receptor 1 = CRF receptor 1 (UniProt P34998); details: cited from earlier work
[9] = tested on: depolarization-induced CREB phosphorylation; assay type: cell-based
[10] = tested on: total CREB in cultured striatal neurons; assay: Immunocytochemistry of total CREB; assay type: cell-based, rat; details: CRF 40 nM, 15 min, vs vehicle; P = 0.67, Student's two-tailed T-test
[11] = tested on: CREB in cerebellar and hippocampal neurons; details: cited from earlier work
Text: Separate from CREB/MAPK signaling, CRF also affects the activity of various other kinases, second messengers, ion channels and neurotransmitter receptors [45]–[51]. This diversity in cellular effects is not surprising when one considers the ability of CRF ...

[12] = tested on: rewarding effects of drugs of abuse / sucrose reward; details: cited from earlier work
Text: Human individuals with a history of chronic stress are more likely to become addicts, and previously abstinent addicts are more likely to relapse following exposure to an acute stressor [1]–[3]. […] And while research thus far has focused on the NAc, CRF neurotransmission is also an essential component to connectivity in the dorsal striatum [19]–[22].

[13] = inhibitor 5 µM, 30 min prior and concurrently, CRF 15 min
[14] = inhibitor 100 nM, 30 min prior and concurrently, CRF 15 min
[15] = inhibitor 500 nM, 30 min prior and concurrently, CRF 15 min, data not shown
[16] = inhibitor 1 µM, 30 min prior and concurrently, CRF 15 min, data not shown
[17] = inhibitor 10 µM, 30 min prior and concurrently, CRF 15 min

Chain of CRF receptor 1 (P34998 24-415): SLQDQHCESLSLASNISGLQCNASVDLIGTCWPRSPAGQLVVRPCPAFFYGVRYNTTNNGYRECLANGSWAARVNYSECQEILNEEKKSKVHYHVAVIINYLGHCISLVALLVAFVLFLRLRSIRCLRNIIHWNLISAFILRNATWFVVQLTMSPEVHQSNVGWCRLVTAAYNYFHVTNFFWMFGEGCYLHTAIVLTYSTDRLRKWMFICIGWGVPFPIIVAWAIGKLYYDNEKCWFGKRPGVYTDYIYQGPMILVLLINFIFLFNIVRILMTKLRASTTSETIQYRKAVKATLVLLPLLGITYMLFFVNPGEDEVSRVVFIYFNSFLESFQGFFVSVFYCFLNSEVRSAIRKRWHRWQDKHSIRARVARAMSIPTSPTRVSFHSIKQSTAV

## CCN(CC)CCCCN1c2ccccc2Oc2ccc(Cl)cc21 [10-DEBC]
[1]; [13]
  effect on CRF-induced CREB phosphorylation: failed to affect CRF-induced CREB phosphorylation
Akt/PKB
  IC50: 2000 to 6000 nM

## CC(=O)OCOC(=O)CN(CC(=O)OCOC(C)=O)c1ccccc1OCCOc1ccccc1N(CC(=O)OCOC(C)=O)CC(=O)OCOC(C)=O [BAPTA-AM]
[1]; [13]
  effect on CRF-induced CREB phosphorylation: failed to block CRF-induced CREB phosphorylation; also recorded: not affected
[2]
  effect on mGluR1/5 mediated calcium transients: Calcium (5 mM prevents mGluR1/5 mediated calcium transienst)

## CCCCN(CC)c1nc(C)nc2c1c(C)cn2-c1c(C)cc(C)cc1C [CP154526]
[1]; [14]
  effect on CRF-induced CREB phosphorylation: eliminated CRF-induced CREB phosphorylation; also recorded: blocked
[3]
  effect on STR-induced CREB phosphorylation: blocked
CRFR1
  Ki: 2.7 nM
CRFR2
  Ki: > 10000 nM

## Cc1cncc2cccc(S(=O)(=O)N3CCCNC[C@@H]3C)c12 [H-1152]
[1]; [15]
  effect on CRF-induced CREB phosphorylation: failed to affect CRF-induced CREB phosphorylation

## COc1ccc(S(=O)(=O)N(CCO)c2ccccc2CN(C)C/C=C/c2ccc(Cl)cc2)cc1 [KN-93]
[1]; inhibitor 2 µM, 30 min prior and concurrently, CRF 15 min
  effect on CRF-induced CREB phosphorylation: had no effect on CRF-induced CREB phosphorylation; also recorded: did not affect CRF-induced CREB phosphorylation
[4]
  effect on depolarization-induced CREB phosphorylation: blocks depolarization-induced CREB phosphorylation

## CCCCCCOC(=O)[C@]1(O)C[C@@H]2O[C@@]1(C)n1c3ccccc3c3c4c(c5c6ccccc6n2c5c31)C(=O)NC4 [KT5720]
[1]; [16]
  effect on CRF-induced CREB phosphorylation: failed to eliminate CRF-induced CREB phosphorylation

## COc1cccc(-c2cc(=O)c3ccccc3o2)c1N [PD98059]
[1]; inhibitor 25 µM, 30 min prior and concurrently, CRF 15 min, data not shown
  effect on CRF-induced CREB phosphorylation: yielded a similar result

## Nc1ncnc2c1ncn2C1CCCO1 (stereo not shown) [SQ22536]
[1]; inhibitor 90 µM, 30 min prior and concurrently, CRF 15 min
  effect on CRF-induced CREB phosphorylation: had no effect on CRF-induced CREB phosphorylation; also recorded: failed to affect CRF-induced CREB phosphorylation
[5]
  effect on ISO-induced cAMP formation: completely blocked ISO-induced cAMP accumulation; also recorded: completely blocked ISO-induced cAMP formation

## N#CC(=C(/N)Sc1ccccc1N)/C(C#N)=C(/N)Sc1ccccc1N [U0126]
[1]; [17]
  effect on CRF-induced CREB phosphorylation: blocked CRF-induced CREB phosphorylation

## CCN(CC)CC.Nc1ncnc2c1ncn2[C@@H]1O[C@@H]2COP(O)(=S)O[C@H]2[C@H]1O (stereo partly shown) [cAMPS-Rp, triethylammonium salt]
[1]; [17]
  effect on CRF-induced CREB phosphorylation: failed to eliminate CRF-induced CREB phosphorylation
PKA
  EC50: 11000 to 16000 nM

## C=C[C@@]1(C)CC(=O)[C@]2(O)[C@@]3(C)[C@@H](O)CCC(C)(C)[C@@H]3[C@H](O)[C@H](OC(C)=O)[C@@]2(C)O1 [forskolin]
[6]; AC agonist, 25 µM
  CREB phosphorylation: CREB phosphorylation stimulated

## CC(C)NCC(O)c1ccc(O)c(O)c1 (stereo not shown) [isoproterenol]
[7]; ISO 10 µM, 15 min, positive control
  cAMP concentration: significant increase in cAMP
[8]
  CREB phosphorylation: leads to CREB phosphorylation

## COC(=O)C1=C(C)NC(C)=C(C(=O)OC)C1c1ccccc1[N+](=O)[O-] [nifedipine]
[1]; [13]
  effect on CRF-induced CREB phosphorylation: had no effect on CRF-induced CREB phosphorylation; also recorded: not affected

## COC[C@H]1OC(=O)c2coc3c2[C@@]1(C)C1=C(C3=O)[C@@H]2CCC(=O)[C@@]2(C)C[C@H]1OC(C)=O [wortmannin]
[1]; [15]
  effect on CRF-induced CREB phosphorylation: failed to affect CRF-induced CREB phosphorylation
PI3K
  PI3K inhibition: PI3K (100 nM inhibits PI3K)

## Corticotropin releasing factor (from UniProt P06850)
CRF receptor 1
  Kd: 7.5 nM

## PKI, 14–22 amide: cell permeable peptide PKA inhibitor (SGRTGRRNA-NH2; not fully specified (N-terminus); also: myristoylated, site not given here; UniProt P61925 14-22, looked up, fragment)
[1]; [16]
  effect on CRF-induced CREB phosphorylation: failed to eliminate CRF-induced CREB phosphorylation
PKA
  Ki: 36 nM

## antisauvagine-30
[1]; [14]
  effect on CRF-induced CREB phosphorylation: failed to block CRF-induced CREB phosphorylation; also recorded: had no effect on CRF-induced CREB phosphorylation
CRFR1
  Kd: 154 nM
CRFR2
  Kd: 1.4 nM

## astressin
[1]; inhibitor 50 nM, 30 min prior and concurrently, CRF 15 min
  effect on CRF-induced CREB phosphorylation: completely abolished CRF-induced CREB phosphorylation; also recorded: blocked
CRFR1
  Ki: 1.6 to 2 nM
CRFR2
  Ki: 1.5 to 2.8 nM

## cholera toxin [CTX]
[6]
  pCREB after toxin alone: transient increase in pCREB on its own
  pCREB signal after toxin alone: 2809.7±104.5
[1]
  effect on CRF-induced CREB phosphorylation: blocked CRF-induced CREB phosphorylation; also recorded: complete block of CRF-induced CREB phosphorylation
[9]
  effect on 60 mM K+ depolarization-induced (MAPK-dependent) CREB phosphorylation: had no effect on MAPK-dependent CREB phosphorylation; also recorded: unaffected

## corticotropin releasing factor [CRF]
[6]; 40 nM CRF, time course
  time constant τ of CRF-induced CREB phosphorylation: ~3.5 min
[6]; CRF 40 nM, 15 min, vs vehicle (NS), p<0.0001, ~25 cells per group
  CREB phosphorylation: significantly increased CREB phosphorylation; also recorded: exhibited increased CREB phosphorylation
[6]; CRF 40 nM, 15 min, cumulative histogram
  share of striatal neurons with shift in pCREB fluorescence intensity: approximately 80%
[6]; CRF 40 nM, 1 hr
  effect of extended exposure on CREB phosphorylation: apparent desensitization
[6]; NAc "enriched" cultures, data not shown
  CREB phosphorylation, NAc enriched culture: similarly robust increases in CREB phosphorylation
[6]; cultured striatal neurons from 1- to 2-day old rat pups, 8-10 d.i.v., nuclear pCREB (Ser133) immunofluorescence, 15 min, nonlinear curve fit
  EC50: 0.3 nM
[6]; dorsal striatum "enriched" cultures, data not shown
  CREB phosphorylation, dorsal striatum enriched culture: similarly robust increases in CREB phosphorylation
[6]; neurons transfected with mCherry alone
  CREB phosphorylation in mCherry-transfected neurons: robust CRF-induced CREB phosphorylation
[7]; CRF 40 nM, time course of pCREB
  cAMP concentration: failed to induce any measurable increase in cAMP concentration
[7]; CRF 4 µM, 15 min, MβCD 10 mM
  cAMP formation in the presence of MβCD: increased cAMP concentrations; also recorded: significant increase in cAMP formation
  cAMP formation in the presence of MβCD relative to isoproterenol: not to the levels seen with isoproterenol
[7]; CRF, various concentrations up to and including 400 nM, 15 min
  cAMP accumulation: failed to increase cAMP accumulation; also recorded: failed to induce a significant accumulation of cAMP
[10]
  total CREB staining: had no effect on total CREB staining; also recorded: showed no change in total CREB staining
CRFR1
  binding affinity of CRF for CRFR1: 5 to 10 nM
[11]
  CREB activation: activate CREB
[12]; CRF acting in NAc
  effect on incentive salience of a sucrose reward: enhances the incentive salience of a sucrose reward
[12]
  effect on rewarding effects of drugs of abuse: potentiate the rewarding effects of drugs of abuse

## pertussis toxin [PTX]
[1]; PTX overnight (18 hr) pretreatment, 0.5 µng/µL, 500 ng/mL
  effect on CRF-induced CREB phosphorylation: did not alter CRF-mediated CREB phosphorylation; also recorded: did not affect CRF-induced pCREB
